The source of these data is patent US6667387B1, “HCV core peptides” (priority 1992, dated 2003).

The test system of test [1] is antibodies in sera from HCV-seropositive donors. The test can be described thus: ELISA with HCV antibody-positive sera (biotinylated peptides on streptavidin- or avidin-coated plates, unbiotinylated peptides coated directly). Type of test: binding, human. The conditions noted are these: for PEPTIDE ELISA (O.D.): Table 12, biotinylated 20-mers; for optical density (450 nm): 20-fold dilution. On the procedure: (§1) Where peptides were to be coated directly, stock solutions of the peptides were diluted in sodium carbonate buffer, pH 9.6 and used to coat polystyrene microtiter plates at a peptide concentration of 2 to 5 micrograms per milliliter for 1 hour at 37° C.
(§2) In cases where biotinylated peptides were to be evaluated, plates were first coated with streptavidin in sodium carbonate buffer, pH 9.6 at a concentration of 3 micrograms per milliliter for 1 hour at 37° C. The plates were then washed to remove excess, unbound protein. A working solution of the biotinylated peptide at 1 microgram per milliliter in sodium carbonate buffer was then added to the wells of the microtiter plate and incubated for 1 hours at 37° C.
(§3) Once the plates had been coated with antigen, any remaining free binding sites on the plastic were blocked with casein. After washing, a dilution of the appropriate antisera, usually 1:100, was added to the wells of the plates and incubated for 1 hour at 37° C.
(§4) After washing to remove unbound material, specific antibody binding was detected by incubating the plates with goat anti-human immunoglobulin antibodies conjugated to the enzyme horseradish peroxidase. Following removal of unbound conjugate by washing, a solution containing H2O2 and 3,3′,5,5′-tetramethylbenzidine was added.
(§5) Reactions were stopped after a suitable interval by addition of sulfuric acid. […] Absorbance measurements were made at a wavelength of 450 nanometers and all data are expressed as an optical density value at this wavelength.
The unbiotinylated peptides were adsorbed onto the wells of polystyrene microtiter plates at a concentration of 3 micrograms per milliliter.
The biotinylated peptides were bound at a concentration of 1 microgram per milliliter to streptavidin-coated microtiter plates. Sera known to contain antibodies to these peptides were used for the evaluation and were tested at a 20-fold dilution.
To investigate further the enhanced antibody recognition of biotinylated HCV peptides bound to streptavidin or avidin as compared to direct adsorption on plastic, the influence of peptide coating concentration was investigated. Three peptides (HCV peptides II, XI, and XVI) were coated in concentrations ranging from 10 nanograms per milliliter to 3 micrograms per milliliter in a volume of 200 microliters per microtiter plate well. For direct coating, the unbiotinylated versions of these peptides were used. The biotinylated versions of these peptides were used to coat wells to which streptavidin had previously been adsorbed. Sera known to contain antibodies to these peptides were used at a dilution of 1 to 100 to evaluate the magnitude of antibody binding.
(§6) Unbiotinylated HCV peptide I was coated directly onto the wells of a polystyrene ELISA plate at a concentration of 3 micrograms per milliliter in sodium carbonate buffer, pH 9.6. Biotinylated HCV peptide I was bound to streptavidin-coated wells using a stock solution containing the peptide at a concentration of 1 microgram per milliliter. The resulting plates were then incubated in parallel with a panel of sera from HCV-seropositive donors. […] Two of the sera (8326 and 8244) recognize the biotinylated version of this peptide far better than the unbiotinylated version. The specificity of the antibody reaction is also reflected by the low optical density values obtained for 5 serum samples from uninfected donors (F88, F89, F76, F136, and F6).
To determine how well biotinylated peptides would function in a mixture when bound to streptavidin- or avidin-coated plates, two mixtures were made of the N-terminally biotinylated versions of the HIV-1 peptides TM-HIV-1 (hereabove referred to as 1a.1) and V3-nm (hereabove referred to as 1b.4), the HIV-2 peptide TM-HIV-2 (hereabove referred to as 2a), and the hepatitis C virus peptides II, IX, and XVIII. […]
A general note: In an ELISA, binding on a coated surface is turned into a signal by an enzyme label.

Test [2] is described as follows: ELISA with seronegative / negative control sera (specificity). Type of test: binding, human. The conditions noted are these: negative serum. On the procedure: as §1, §2, §3, §4, §5, §6
To determine how well biotinylated peptides would function in a mixture when bound to streptavidin- or avidin-coated plates, two mixtures were made of the N-terminally biotinylated versions of the HIV-1 peptides TM-HIV-1 (hereabove referred to as 1a.1) and V3-nm (hereabove referred to as 1b.4), the HIV-2 peptide TM-HIV-2 (hereabove referred to as 2a), and the hepatitis C virus peptides II, IX, and XVIII. Mixture A contained each of the six biotinylated peptides at a concentration of 1 microgram per milliliter (6 micrograms per milliliter peptide, total) while in mixture B, each peptide was present at a concentration of 0.1 microgram per milliliter (0.6 microgram per milliliter peptide, total). The individual peptides were coated at a concentration of 1 microgram per milliliter. For purposes of comparison, mixtures A and B were also coated directly onto the wells of a microtiter plate. Samples from HIV-1, HIV-2, and HCV-seropositive donors were tested and compared to sera from seronegative blood donors. A cut-off absorbance value of 0.250 was used to determine whether a reaction was positive or negative. Absorbance values equal or greater than 0.250 were considered positive while absorbance values below this value were considered negative.

Ends that are not written are not given here.

Consider “NS5-25: biotinylated 20-mer, HCV NS5 aa 2263-2282, SEQ ID NO:59”, for which the “PEPTIDE ELISA (O.D.)” value is recorded as 0.062 in test [1] (serum 0843); 0.054 in test [1] (serum 8240); 0.050 in test [1] (serum 8241); 0.260 in test [1] (serum 8242); 0.047 in test [1] (serum 8332); 1.495 in test [1] (serum 8339). The “PEPTIDE ELISA (O.D.)” value is given as 0.069 in test [1] (serum 8350), 1.092 in test [1] (serum 8377), 0.279 in test [1] (serum 8378) and 0.055 in test [1] (serum 8388).
Consider “Ser-Gln-His-Leu-Pro-Tyr-Ile-Glu-Gln-Gly-Met-Met-Leu-Ala-Glu-Gln-Phe-Lys-Gln-Lys [Biotinylated peptide XI] (SQHLPYIEQGMMLAEQFKQK; also: biotinylated) [probably the unbiotinylated peptide XI, acetylated at the amino terminus, coated directly]”, for which the “optical density (450 nm)” value was determined as 0.053 in test [2] (Table 4A); 0.090 in test [1] (Table 4A, serum 2); 0.443 in test [1] (Table 4A, serum 3); 0.473 in test [1] (Table 4A, serum 4); 0.053 in test [1] (Table 4A, serum 6); 1.275 in test [1] (Table 4A, serum 8). The “optical density (450 nm)” value in test [1] (Table 4A, serum 10) is listed as 0.764; in test [1] (Table 4A, serum 11), 0.569; in test [1] (Table 4A, serum 23), 0.775; in test [1] (Table 4A, serum 31), 0.497; in test [1] (Table 4A, serum 33), 0.832; in test [1] (Table 4A, serum 49), 0.515. For the same substance, in test [1] (Table 4A, serum 77), the “optical density (450 nm)” value amounted to 0.093.
On to “Leu-Arg-Lys-Ser-Arg-Arg-Phe-Ala-Gln-Ala-Leu-Pro-Val-Trp-Ala-Arg-Pro-Asp-Tyr-Asn [Peptide XVI] (LRKSRRFAQALPVWARPDYN; printed: Leu-Arg-Lys-Ser-Arg-Arg-Phe-Ala-Gln-Ala-Leu-Pro-Val-Trp-Ala-Arg-Pro-Asp-Tyr-Asn)”, for which the “optical density (450 nm)” value in test [2] (Table 4B) was determined as 0.067; in test [1] (Table 4B, serum 1) it was 2.435; in test [1] (Table 4B, serum 2), 1.239; in test [1] (Table 4B, serum 6) it was 1.595; in test [1] (Table 4B, serum 8) it was 1.599; in test [1] (Table 4B, serum 10), 2.847. Also, the “optical density (450 nm)” value in test [1] (Table 4B, serum 26) was determined as 1.522; in test [1] (Table 4B, serum 83), 2.221; in test [1] (Table 4B, serum 88), 2.519; in test [1] (Table 4B, serum 89), 1.530; in test [1] (Table 4B, serum 91), 2.169; in test [1] (Table 4B, serum 95), 1.484. The “optical density (450 nm)” value in test [1] (Table 4B, serum 99) is 2.045; in test [1] (Table 4B, serum 100), 1.637; in test [1] (Table 4B, serum 104), 0.942; in test [1] (Table 4B, serum 105), 2.186; in test [1] (Table 4B, serum 110), 1.484; in test [1] (Table 4B, serum 111) it was 1.465. Besides, the “optical density (450 nm)” value in test [1] (Table 4B, serum 112) worked out at 1.084; in test [1] (Table 4B, serum 113), 2.535; in test [1] (Table 4B, serum 116), 1.918; in test [1] (Table 4B, serum 120), 2.332; in test [1] (Table 4B, serum 266), 2.262; in test [1] (Table 4B, serum 8247), 0.618. In addition, the “optical density (450 nm)” value was found to be 2.197 in test [1] (Table 4B, serum 11476) and 0.062 in test [1] (Table 4B, serum 24758). The “PEPTIDE ELISA (O.D.)” value is listed as 1.444 in test [1] (serum 0843); 0.388 in test [1] (serum 8240); 2.456 in test [1] (serum 8241); 2.318 in test [1] (serum 8242); 2.130 in test [1] (serum 8332); 2.859 in test [1] (serum 8339). Moreover, the “PEPTIDE ELISA (O.D.)” value in test [1] (serum 8350) was found to be 2.249; in test [1] (serum 8377), 2.336; in test [1] (serum 8378) it was 1.602; in test [1] (serum 8388) it was 0.390.
As to “Core-7: biotinylated 20-mer, HCV core aa 37-56, SEQ ID NO:41”, the “PEPTIDE ELISA (O.D.)” value in test [1] (serum 0843) turned out to be 1.251; in test [1] (serum 8240) it was 1.529; in test [1] (serum 8241) it was 0.448; in test [1] (serum 8242) it was 0.632; in test [1] (serum 8332), 1.387; in test [1] (serum 8339), 0.166. Besides, the “PEPTIDE ELISA (O.D.)” value in test [1] (serum 8350) is listed as 0.357; in test [1] (serum 8377), 0.221; in test [1] (serum 8378), 1.089; in test [1] (serum 8388), 0.970.
On to “HCV-7: biotinylated 20-mer, HCV NS4 aa 1724-1743, SEQ ID NO:55”, for which the “PEPTIDE ELISA (O.D.)” value is recorded as 2.251 in test [1] (serum 0843); 1.963 in test [1] (serum 8240); 0.968 in test [1] (serum 8241); 1.252 in test [1] (serum 8242); 0.945 in test [1] (serum 8332); 0.041 in test [1] (serum 8339). In addition, the “PEPTIDE ELISA (O.D.)” value was 0.598 in test [1] (serum 8350), 1.829 in test [1] (serum 8377), 2.006 in test [1] (serum 8378) and 2.504 in test [1] (serum 8388). Also, the “antibody binding to the 20-mers” value in test [1] (serum 8241) is listed as “Moderate binding”.
